{
  "source": "patent US20180200257A1",
  "about": "“METHODS FOR THE TREATMENT OF INFLAMMATORY DISORDERS” (Galapagos NV, priority 2015, published 2018)",
  "test_system": "subjects with moderately to severely active RA who have an inadequate response to methotrexate (MTX)",
  "assay": "Study 2 (monotherapy) - Alanine Aminotransferase (ALT) levels",
  "format": "in vivo, human",
  "conditions": "24 weeks results",
  "from_the_text": "Randomized, double-blind, placebo-controlled, multicenter, phase IIb dose finding study of Compound 1 (dosed as a [Compound 1:HCl:3H2O]) administered for 24 weeks as monotherapy to subjects with moderately to severely active rheumatoid arthritis who have an inadequate response to methotrexate alone\nDouble-blind, placebo-controlled, monotherapy study in subjects with moderately to severely active RA who have an inadequate response to methotrexate (MTX) (oral or parenteral).\n280 subjects randomized to one of 3 doses of Compound 1 (dosed as a [Compound 1:HCl:3H2O]) or to placebo, given once daily (q.d.).\nTwelve weeks of treatment with Compound 1 (dosed as a [Compound 1:HCl:3H2O]) at 50 mg, 100 mg, or 200 mg q.d.; or placebo. At Week 12, all subjects on placebo and the subjects on the 50 mg dose who have not achieved 20% improvement in swollen joint count (SJC66) and tender joint count (TJC68) will be assigned to 100 mg q.d. in a blinded fashion and will continue treatment until Week 24. Subjects in the other groups will maintain their randomized treatment until Week 24.\nALT levels determination is available at Quest Diagnostics, Clinical Trials, Quest House, 125-135 Staines Road, Hounslow, Middlesex, TW3 3JB, United Kingdom under Catalogue n#84460.\nALT catalyzes the exchange of the amino group of alanine with the oxogroup of 2-ketoglutarate to form pyruvate and glutamate. In the presence of lactic dehydrogenase, pyruvate reacts with NADH to form NAD+, measured spectrophotometrically. Guidelines for the ALT value have been issued by the association for Clinical Biochemistry and Laboratory Medicine, 130-132 Tooley Street LONDON SE1 2TU, united Kingdom, wherein the ALT value should be below 34 U/l in Female and below 52 U/L in male.\nSubjects in the other groups maintained their randomized treatment until Week 24.",
  "key": {"[1]": {"conditions": "placebo switching to 100 mg q.d. at week 12, week 16"}, "[2]": {"conditions": "placebo switching to 100 mg q.d. at week 12, week 20"}, "[3]": {"conditions": "placebo switching to 100 mg q.d. at week 12, week 24"}},
  "data": [
    {"smiles": "O=C(Nc1nc2cccc(-c3ccc(CN4CCS(=O)(=O)CC4)cc3)n2n1)C1CC1", "note": "[Compound 1, cyclopropanecarboxylic acid {5-[4-(1,1-dioxo-thiomorpholin-4-ylmethyl)-phenyl]-[1,2,4]triazolo[1,5-a]pyridin-2-yl}-amide]", "values": [
      {"measurement": "Study 2 - ALT Mean CFB", "setting": "50 mg q.d. responders, week 4", "result": "−3.0", "unit": "IU/L"},
      {"measurement": "Study 2 - ALT Mean percentage CFB", "setting": "50 mg q.d. responders, week 4", "result": "−5.93", "unit": "%"},
      {"measurement": "Study 2 - ALT Mean CFB", "setting": "50 mg q.d. responders, week 8", "result": "−3.4", "unit": "IU/L"},
      {"measurement": "Study 2 - ALT Mean percentage CFB", "setting": "50 mg q.d. responders, week 8", "result": 0.30, "unit": "%"},
      {"measurement": "Study 2 - ALT Mean CFB", "setting": "50 mg q.d. responders, week 12", "result": "−1.6", "unit": "IU/L"},
      {"measurement": "Study 2 - ALT Mean percentage CFB", "setting": "50 mg q.d. responders, week 12", "result": 2.63, "unit": "%"},
      {"measurement": "Study 2 - ALT Mean CFB", "setting": "50 mg q.d. responders, week 16", "result": "−0.2", "unit": "IU/L"},
      {"measurement": "Study 2 - ALT Mean percentage CFB", "setting": "50 mg q.d. responders, week 16", "result": 17.03, "unit": "%"},
      {"measurement": "Study 2 - ALT Mean CFB", "setting": "50 mg q.d. responders, week 20", "result": "−0.5", "unit": "IU/L"},
      {"measurement": "Study 2 - ALT Mean percentage CFB", "setting": "50 mg q.d. responders, week 20", "result": 8.38, "unit": "%"},
      {"measurement": "Study 2 - ALT Mean CFB", "setting": "50 mg q.d. responders, week 24", "result": "−0.2", "unit": "IU/L"},
      {"measurement": "Study 2 - ALT Mean percentage CFB", "setting": "50 mg q.d. responders, week 24", "result": 16.54, "unit": "%"},
      {"measurement": "Study 2 - ALT Mean CFB", "setting": "100 mg q.d., week 1", "result": 0.4, "unit": "IU/L"},
      {"measurement": "Study 2 - ALT Mean percentage CFB", "setting": "100 mg q.d., week 1", "result": 13.98, "unit": "%"},
      {"measurement": "Study 2 - ALT Mean CFB", "setting": "100 mg q.d., week 2", "result": 0.7, "unit": "IU/L"},
      {"measurement": "Study 2 - ALT Mean percentage CFB", "setting": "100 mg q.d., week 2", "result": 13.25, "unit": "%"},
      {"measurement": "Study 2 - ALT Mean CFB", "setting": "100 mg q.d., week 4", "result": 0.3, "unit": "IU/L"},
      {"measurement": "Study 2 - ALT Mean percentage CFB", "setting": "100 mg q.d., week 4", "result": 17.82, "unit": "%"},
      {"measurement": "Study 2 - ALT Mean CFB", "setting": "100 mg q.d., week 8", "result": "−0.5", "unit": "IU/L"},
      {"measurement": "Study 2 - ALT Mean percentage CFB", "setting": "100 mg q.d., week 8", "result": 7.83, "unit": "%"},
      {"measurement": "Study 2 - ALT Mean CFB", "setting": "100 mg q.d., week 12", "result": 1.3, "unit": "IU/L"},
      {"measurement": "Study 2 - ALT Mean percentage CFB", "setting": "100 mg q.d., week 12", "result": 14.61, "unit": "%"},
      {"measurement": "Study 2 - ALT Mean CFB", "setting": "100 mg q.d., week 16", "result": 4.1, "unit": "IU/L"},
      {"measurement": "Study 2 - ALT Mean percentage CFB", "setting": "100 mg q.d., week 16", "result": 25.66, "unit": "%"},
      {"measurement": "Study 2 - ALT Mean CFB", "setting": "100 mg q.d., week 20", "result": 1.8, "unit": "IU/L"},
      {"measurement": "Study 2 - ALT Mean percentage CFB", "setting": "100 mg q.d., week 20", "result": 37.63, "unit": "%"},
      {"measurement": "Study 2 - ALT Mean CFB", "setting": "100 mg q.d., week 24", "result": 0.4, "unit": "IU/L"},
      {"measurement": "Study 2 - ALT Mean percentage CFB", "setting": "100 mg q.d., week 24", "result": 20.33, "unit": "%"},
      {"measurement": "Study 2 - ALT Mean CFB", "setting": "200 mg q.d., week 1", "result": "−1.8", "unit": "IU/L"},
      {"measurement": "Study 2 - ALT Mean percentage CFB", "setting": "200 mg q.d., week 1", "result": "−0.92", "unit": "%"},
      {"measurement": "Study 2 - ALT Mean CFB", "setting": "200 mg q.d., week 2", "result": "−1.1", "unit": "IU/L"},
      {"measurement": "Study 2 - ALT Mean percentage CFB", "setting": "200 mg q.d., week 2", "result": 1.07, "unit": "%"},
      {"measurement": "Study 2 - ALT Mean CFB", "setting": "200 mg q.d., week 4", "result": "−1.4", "unit": "IU/L"},
      {"measurement": "Study 2 - ALT Mean percentage CFB", "setting": "200 mg q.d., week 4", "result": 4.71, "unit": "%"},
      {"measurement": "Study 2 - ALT Mean CFB", "setting": "200 mg q.d., week 8", "result": "−0.8", "unit": "IU/L"},
      {"measurement": "Study 2 - ALT Mean percentage CFB", "setting": "200 mg q.d., week 8", "result": 8.41, "unit": "%"},
      {"measurement": "Study 2 - ALT Mean CFB", "setting": "200 mg q.d., week 12", "result": "−1.1", "unit": "IU/L"},
      {"measurement": "Study 2 - ALT Mean percentage CFB", "setting": "200 mg q.d., week 12", "result": 5.69, "unit": "%"},
      {"measurement": "Study 2 - ALT Mean CFB", "setting": "200 mg q.d., week 16", "result": 0.4, "unit": "IU/L"},
      {"measurement": "Study 2 - ALT Mean percentage CFB", "setting": "200 mg q.d., week 16", "result": 17.47, "unit": "%"},
      {"measurement": "Study 2 - ALT Mean CFB", "setting": "200 mg q.d., week 20", "result": "−0.6", "unit": "IU/L"},
      {"measurement": "Study 2 - ALT Mean percentage CFB", "setting": "200 mg q.d., week 20", "result": 6.69, "unit": "%"},
      {"measurement": "Study 2 - ALT Mean CFB", "setting": "200 mg q.d., week 24", "result": "−1.3", "unit": "IU/L"},
      {"measurement": "Study 2 - ALT Mean percentage CFB", "setting": "200 mg q.d., week 24", "result": 5.83, "unit": "%"},
      {"measurement": "Study 2 - ALT Mean CFB", "setting": "[1]", "result": 0.4, "unit": "IU/L"},
      {"measurement": "Study 2 - ALT Mean percentage CFB", "setting": "[1]", "result": 15.03, "unit": "%"},
      {"measurement": "Study 2 - ALT Mean CFB", "setting": "[2]", "result": 0.8, "unit": "IU/L"},
      {"measurement": "Study 2 - ALT Mean percentage CFB", "setting": "[2]", "result": 17.28, "unit": "%"},
      {"measurement": "Study 2 - ALT Mean CFB", "setting": "[3]", "result": 0.9, "unit": "IU/L"},
      {"measurement": "Study 2 - ALT Mean percentage CFB", "setting": "[3]", "result": 18.10, "unit": "%"}
    ]}
  ]
}
